Molecules are shown by their SMILES.

The target of one assay is T1, MC4 (Homo sapiens, UniProt P32245).
T1 construct: purchased Perkin Elmer BioSignal; host or cells: HEK 293
T1 sequence (P32245 whole entry): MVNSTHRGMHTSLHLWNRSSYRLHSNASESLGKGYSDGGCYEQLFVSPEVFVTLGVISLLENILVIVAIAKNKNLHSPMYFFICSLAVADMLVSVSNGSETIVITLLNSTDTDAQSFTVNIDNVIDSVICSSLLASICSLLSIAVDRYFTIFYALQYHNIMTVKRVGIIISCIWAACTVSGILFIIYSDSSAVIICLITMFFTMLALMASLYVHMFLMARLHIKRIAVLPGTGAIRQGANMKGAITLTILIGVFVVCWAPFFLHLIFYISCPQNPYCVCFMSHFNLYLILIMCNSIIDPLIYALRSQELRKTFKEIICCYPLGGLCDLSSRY
Kind of assay: GPCR radioligand binding (RLB) assay, melanocortin MC4, [125I]NDP-αMSH. To be noted: 4.0 Micromolar; Example Library 12. An outline of the steps: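 Competition binding against radioligand ([125I]NDP-αMSH for MC4, [125I]SST-14 for SST5) on membranes of HEK 293 cells carrying the human receptor; buffer and incubation time optimized per receptor. Filtration through 0.5% PEI-treated glass fiber, washing, then scintillation counting.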
For the compound `N=C(N)NCCC(=O)N[C@H]1C(OCc2ccccc2)O[C@H](COCc2ccccc2)[C@@H](O)[C@@H]1OCc1ccc2ccccc2c1` (some centres unmarked) [Compound 453], the “MC4 Inhibition at 4.0 Micromolar” value was “+ (Indicates inhibition greater than . . . 50%)”.

For `N=C(N)NCCC(=O)N[C@H]1C(OCc2ccccc2)O[C@H](COCc2ccccc2)[C@@H](O)[C@@H]1OCc1ccc2ccccc2c1` (some centres unmarked) [Compound 454], the “MC4 Inhibition at 4.0 Micromolar” value is listed as “+ (Indicates inhibition greater than . . . 50%)”.

For `N=C(N)NCCC(=O)N[C@H]1C(OCc2ccccc2)O[C@H](COCc2ccc(Cl)cc2)[C@@H](O)[C@@H]1OCc1ccc2ccccc2c1` (some centres unmarked) [Compound 455], the “MC4 Inhibition at 4.0 Micromolar” value was “+ (Indicates inhibition greater than . . . 50%)”.

Regarding `N=C(N)NCCC(=O)N[C@H]1C(OCc2ccccc2)O[C@H](COCc2ccc(Cl)cc2)[C@@H](O)[C@@H]1OCc1ccc2ccccc2c1` (some centres unmarked) [Compound 456], the “MC4 Inhibition at 4.0 Micromolar” value is “+ (Indicates inhibition greater than . . . 50%)”.

Regarding `N=C(N)NCCC(=O)N[C@H]1C(OCc2ccccc2)O[C@H](COCc2ccc3ccccc3c2)[C@@H](O)[C@@H]1OCc1ccc(-c2ccccc2)cc1` (some centres unmarked) [Compound 457], the “MC4 Inhibition at 4.0 Micromolar” value is listed as “+ (Indicates inhibition greater than . . . 50%)”.

`N=C(N)NCCC(=O)N[C@H]1C(OCc2ccccc2)O[C@H](COCc2ccc3ccccc3c2)[C@@H](O)[C@@H]1OCc1ccc(-c2ccccc2)cc1` (some centres unmarked) [Compound 458]: the “MC4 Inhibition at 4.0 Micromolar” value was “+ (Indicates inhibition greater than . . . 50%)”.

In the case of `N=C(N)NCCC(=O)N[C@H]1C(OCc2ccccc2)O[C@H](COCc2ccccc2)[C@@H](O)[C@@H]1OCc1ccc(-c2ccccc2)cc1` (some centres unmarked) [Compound 459], the “MC4 Inhibition at 4.0 Micromolar” value is recorded as “+ (Indicates inhibition greater than . . . 50%)”.

As for `N=C(N)NCCC(=O)N[C@H]1C(OCc2ccccc2)O[C@H](COCc2ccc(Cl)cc2)[C@@H](O)[C@@H]1OCc1ccc(-c2ccccc2)cc1` (some centres unmarked) [Compound 460], the “MC4 Inhibition at 4.0 Micromolar” value was “+ (Indicates inhibition greater than . . . 50%)”.

As to `N=C(N)NCCC(=O)N[C@H]1C(OCc2ccccc2)O[C@H](COCc2ccc(Cl)cc2)[C@@H](O)[C@@H]1OCc1ccc(-c2ccccc2)cc1` (some centres unmarked) [Compound 461], the “MC4 Inhibition at 4.0 Micromolar” value is listed as “+ (Indicates inhibition greater than . . . 50%)”.

Turning to `N=C(N)NCCC(=O)N[C@H]1C(OCc2ccccc2)O[C@H](COCCc2ccccc2)[C@@H](O)[C@@H]1OCc1ccc(-c2ccccc2)cc1` (some centres unmarked) [Compound 462], the “MC4 Inhibition at 4.0 Micromolar” value was “+ (Indicates inhibition greater than . . . 50%)”.

The same assay, now with this note: 4.0 Micromolar; Example Library 13.
In the case of `N=C(N)NCC(=O)N[C@H]1C(OCc2ccc(-c3ccccc3)cc2)O[C@H](COCc2ccc3ccccc3c2)[C@@H](O)[C@H]1OCc1ccc(Cl)cc1` (some centres unmarked) [Compound 463], the “MC4 Inhibition at 4.0 Micromolar” value is given as “+ (Indicates inhibition greater than . . . 50%)”.

For the compound `N=C(N)NCC(=O)N[C@H]1C(OCc2ccc(-c3ccccc3)cc2)O[C@H](COCc2ccccc2)[C@@H](O)[C@H]1OCc1ccc(Cl)cc1` (some centres unmarked) [Compound 464], the “MC4 Inhibition at 4.0 Micromolar” value is listed as “+ (Indicates inhibition greater than . . . 50%)”.

Regarding `N=C(N)NCC(=O)N[C@H]1C(OCc2ccc(-c3ccccc3)cc2)O[C@H](COCc2ccc(Cl)cc2)[C@@H](O)[C@H]1OCc1ccc(Cl)cc1` (some centres unmarked) [Compound 465], the “MC4 Inhibition at 4.0 Micromolar” value is given as “+ (Indicates inhibition greater than . . . 50%)”.

`N=C(N)NCC(=O)N[C@H]1C(OCc2ccc(-c3ccccc3)cc2)O[C@H](COCc2ccccc2)[C@@H](O)[C@H]1OCc1ccc2ccccc2c1` (some centres unmarked) [Compound 466]: the “MC4 Inhibition at 4.0 Micromolar” value is given as “+ (Indicates inhibition greater than . . . 50%)”.

Consider `N=C(N)NCC(=O)N[C@H]1C(OCc2ccc(-c3ccccc3)cc2)O[C@H](COCc2ccc(Cl)cc2)[C@@H](O)[C@H]1OCc1ccc2ccccc2c1` (some centres unmarked) [Compound 467], for which the “MC4 Inhibition at 4.0 Micromolar” value is on record as “+ (Indicates inhibition greater than . . . 50%)”.

For the compound `N=C(N)NCC(=O)N[C@H]1C(OCc2ccc(-c3ccccc3)cc2)O[C@H](COCc2ccccc2)[C@@H](O)[C@H]1OCc1ccc(-c2ccccc2)cc1` (some centres unmarked) [Compound 468], the “MC4 Inhibition at 4.0 Micromolar” value is reported as “+ (Indicates inhibition greater than . . . 50%)”.

For the compound `N=C(N)NCC(=O)N[C@H]1C(OCc2ccc(-c3ccccc3)cc2)O[C@H](COCc2ccc(Cl)cc2)[C@@H](O)[C@H]1OCc1ccc(-c2ccccc2)cc1` (some centres unmarked) [Compound 469], the “MC4 Inhibition at 4.0 Micromolar” value is recorded as “+ (Indicates inhibition greater than . . . 50%)”.

Turning to `N=C(N)NCCC(=O)N[C@H]1C(OCc2ccc(-c3ccccc3)cc2)O[C@H](COCc2ccc3ccccc3c2)[C@@H](O)[C@H]1OCc1ccc(Cl)cc1` (some centres unmarked) [Compound 470], the “MC4 Inhibition at 4.0 Micromolar” value is reported as “+ (Indicates inhibition greater than . . . 50%)”.

As for `N=C(N)NCCC(=O)N[C@H]1C(OCc2ccc(-c3ccccc3)cc2)O[C@H](COCc2ccccc2)[C@@H](O)[C@H]1OCc1ccc(Cl)cc1` (some centres unmarked) [Compound 471], the “MC4 Inhibition at 4.0 Micromolar” value is recorded as “+ (Indicates inhibition greater than . . . 50%)”.

Regarding `N=C(N)NCCC(=O)N[C@H]1C(OCc2ccc(-c3ccccc3)cc2)O[C@H](COCc2ccc(Cl)cc2)[C@@H](O)[C@H]1OCc1ccc(Cl)cc1` (some centres unmarked) [Compound 472], the “MC4 Inhibition at 4.0 Micromolar” value is recorded as “+ (Indicates inhibition greater than . . . 50%)”.

For `N=C(N)NCCC(=O)N[C@H]1C(OCc2ccc(-c3ccccc3)cc2)O[C@H](COCc2ccc3ccccc3c2)[C@@H](O)[C@H]1OCc1ccc2ccccc2c1` (some centres unmarked) [Compound 473], the “MC4 Inhibition at 4.0 Micromolar” value was “+ (Indicates inhibition greater than . . . 50%)”.

Turning to `N=C(N)NCCC(=O)N[C@H]1C(OCc2ccc(-c3ccccc3)cc2)O[C@H](COCc2ccccc2)[C@@H](O)[C@H]1OCc1ccc2ccccc2c1` (some centres unmarked) [Compound 474], the “MC4 Inhibition at 4.0 Micromolar” value is “+ (Indicates inhibition greater than . . . 50%)”.

With `N=C(N)NCCC(=O)N[C@H]1C(OCc2ccc(-c3ccccc3)cc2)O[C@H](COCc2ccc(Cl)cc2)[C@@H](O)[C@H]1OCc1ccc2ccccc2c1` (some centres unmarked) [Compound 475], the “MC4 Inhibition at 4.0 Micromolar” value was “+ (Indicates inhibition greater than . . . 50%)”.

Take `N=C(N)NCCC(=O)N[C@H]1C(OCc2ccc(-c3ccccc3)cc2)O[C@H](COCc2ccc3ccccc3c2)[C@@H](O)[C@H]1OCc1ccc(-c2ccccc2)cc1` (some centres unmarked) [Compound 476]: the “MC4 Inhibition at 4.0 Micromolar” value is “+ (Indicates inhibition greater than . . . 50%)”.

On to `N=C(N)NCCC(=O)N[C@H]1C(OCc2ccc(-c3ccccc3)cc2)O[C@H](COCc2ccccc2)[C@@H](O)[C@H]1OCc1ccc(-c2ccccc2)cc1` (some centres unmarked) [Compound 477], for which the “MC4 Inhibition at 4.0 Micromolar” value is listed as “+ (Indicates inhibition greater than . . . 50%)”.

As for `N=C(N)NCCC(=O)N[C@H]1C(OCc2ccc(-c3ccccc3)cc2)O[C@H](COCc2ccc(Cl)cc2)[C@@H](O)[C@H]1OCc1ccc(-c2ccccc2)cc1` (some centres unmarked) [Compound 478], the “MC4 Inhibition at 4.0 Micromolar” value is on record as “+ (Indicates inhibition greater than . . . 50%)”.

Take `N=C(N)NCC(=O)N[C@H]1C(OCc2ccc(Cl)cc2)O[C@H](COCc2ccc3ccccc3c2)[C@@H](O)[C@H]1OCc1ccc(Cl)cc1` (some centres unmarked) [Compound 479]: the “MC4 Inhibition at 4.0 Micromolar” value is recorded as “+ (Indicates inhibition greater than . . . 50%)”.

Take `N=C(N)NCC(=O)N[C@H]1C(OCc2ccc(Cl)cc2)O[C@H](COCc2ccccc2)[C@@H](O)[C@H]1OCc1ccc(Cl)cc1` (some centres unmarked) [Compound 480]: the “MC4 Inhibition at 4.0 Micromolar” value is given as “+ (Indicates inhibition greater than . . . 50%)”.

`N=C(N)NCC(=O)NC1C(OCc2ccc(Cl)cc2)OC(COCc2ccc(Cl)cc2)C(O)C1OCc1ccc(Cl)cc1` (centres unmarked) [Compound 481]: the “MC4 Inhibition at 4.0 Micromolar” value is on record as “+ (Indicates inhibition greater than . . . 50%)”.

Take `N=C(N)NCC(=O)NC1C(OCc2ccc(Cl)cc2)OC(COCc2ccc3ccccc3c2)C(O)C1OCc1ccc2ccccc2c1` (centres unmarked) [Compound 482]: the “MC4 Inhibition at 4.0 Micromolar” value is recorded as “+ (Indicates inhibition greater than . . . 50%)”.

With `N=C(N)NCC(=O)NC1C(OCc2ccc(Cl)cc2)OC(COCc2ccccc2)C(O)C1OCc1ccc2ccccc2c1` (centres unmarked) [Compound 483], the “MC4 Inhibition at 4.0 Micromolar” value is on record as “+ (Indicates inhibition greater than . . . 50%)”.

`N=C(N)NCC(=O)NC1C(OCc2ccc(Cl)cc2)OC(COCc2ccc(Cl)cc2)C(O)C1OCc1ccc2ccccc2c1` (centres unmarked) [Compound 484]: the “MC4 Inhibition at 4.0 Micromolar” value is given as “+ (Indicates inhibition greater than . . . 50%)”.

As to `N=C(N)NCC(=O)NC1C(OCc2ccc(Cl)cc2)OC(COCc2ccc3ccccc3c2)C(O)C1OCc1ccc(-c2ccccc2)cc1` (centres unmarked) [Compound 485], the “MC4 Inhibition at 4.0 Micromolar” value is recorded as “+ (Indicates inhibition greater than . . . 50%)”.

In the case of `N=C(N)NCC(=O)NC1C(OCc2ccc(Cl)cc2)OC(COCc2ccccc2)C(O)C1OCc1ccc(-c2ccccc2)cc1` (centres unmarked) [Compound 486], the “MC4 Inhibition at 4.0 Micromolar” value is “+ (Indicates inhibition greater than . . . 50%)”.

As for `N=C(N)NCC(=O)NC1C(OCc2ccc(Cl)cc2)OC(COCc2ccc(Cl)cc2)C(O)C1OCc1ccc(-c2ccccc2)cc1` (centres unmarked) [Compound 487], the “MC4 Inhibition at 4.0 Micromolar” value was “+ (Indicates inhibition greater than . . . 50%)”.

On to `N=C(N)NCCC(=O)NC1C(OCc2ccc(Cl)cc2)OC(COCc2ccc3ccccc3c2)C(O)C1OCc1ccc(Cl)cc1` (centres unmarked) [Compound 488], for which the “MC4 Inhibition at 4.0 Micromolar” value is listed as “+ (Indicates inhibition greater than . . . 50%)”.

For `N=C(N)NCCC(=O)NC1C(OCc2ccc(Cl)cc2)OC(COCc2ccccc2)C(O)C1OCc1ccc(Cl)cc1` (centres unmarked) [Compound 489], the “MC4 Inhibition at 4.0 Micromolar” value is reported as “+ (Indicates inhibition greater than . . . 50%)”.

Turning to `N=C(N)NCCC(=O)NC1C(OCc2ccc(Cl)cc2)OC(COCc2ccc(Cl)cc2)C(O)C1OCc1ccc(Cl)cc1` (centres unmarked) [Compound 490], the “MC4 Inhibition at 4.0 Micromolar” value is “+ (Indicates inhibition greater than . . . 50%)”.

Take `N=C(N)NCCC(=O)NC1C(OCc2ccc(Cl)cc2)OC(COCc2ccc3ccccc3c2)C(O)C1OCc1ccc2ccccc2c1` (centres unmarked) [Compound 491]: the “MC4 Inhibition at 4.0 Micromolar” value is listed as “+ (Indicates inhibition greater than . . . 50%)”.

For the compound `N=C(N)NCCC(=O)NC1C(OCc2ccc(Cl)cc2)OC(COCc2ccccc2)C(O)C1OCc1ccc2ccccc2c1` (centres unmarked) [Compound 492], the “MC4 Inhibition at 4.0 Micromolar” value is on record as “+ (Indicates inhibition greater than . . . 50%)”.

For `N=C(N)NCCC(=O)NC1C(OCc2ccc(Cl)cc2)OC(COCc2ccc(Cl)cc2)C(O)C1OCc1ccc2ccccc2c1` (centres unmarked) [Compound 493], the “MC4 Inhibition at 4.0 Micromolar” value is reported as “+ (Indicates inhibition greater than . . . 50%)”.

These data come from patent US7994140B2, “Classes of compounds that interact with GPCRs” (Alchemia Limited, priority 2002, dated 2011).
